Results from ChEMBL document CHEMBL1146582, “Phenolic constituents from Dalbergia cochinchinensis” (J Nat Prod, 2003).

Assay: Inhibition of testerone 5-alpha-reductase at 50 ug/mL
In the case of COC1=CC(=O)c2cc(-c3ccccc3)c3cc(O)c(OC)cc3c2C1=O, the inhibition is reported as 52%.
With COc1cc(O)ccc1C(=O)/C=C/c1ccccc1 the inhibition was 20.7%.
For C=CC(c1ccccc1)c1cc(O)c(OC)cc1OC (stereo not drawn), the inhibition was 18.9%.
CC1(C)[C@@H](O)CC[C@]2(C)[C@H]3C(=O)C=C4[C@@H]5C[C@@](C)(C(=O)O)CC[C@]5(C)CC[C@@]4(C)[C@]3(C)CC[C@@H]12 gave an inhibition of 64.7%.
COC1=CC(=O)C(Cc2oc3cc(OC)c(O)cc3c2-c2ccccc2)=CC1(C/C=C/c1ccccc1)OC (stereo not drawn) showed an inhibition of 3.8%.
Compound COc1cc2oc(Cc3cc(OC)c(OC)cc3OC/C=C/c3ccccc3)c(-c3ccccc3)c2cc1O has an inhibition of 15.9%.

Assay: Inhibition of testerone 5-alpha-reductase at 25 ug/mL
COC1=CC(=O)c2cc(-c3ccccc3)c3cc(O)c(OC)cc3c2C1=O gave an inhibition of 42.8%.
COc1cc(O)ccc1C(=O)/C=C/c1ccccc1 showed an inhibition of 19.5%.
C=CC(c1ccccc1)c1cc(O)c(OC)cc1OC (stereo not drawn) gave an inhibition of 8.2%.
CC1(C)[C@@H](O)CC[C@]2(C)[C@H]3C(=O)C=C4[C@@H]5C[C@@](C)(C(=O)O)CC[C@]5(C)CC[C@@]4(C)[C@]3(C)CC[C@@H]12 showed an inhibition of 31.7%.
Compound COC1=CC(=O)C(Cc2oc3cc(OC)c(O)cc3c2-c2ccccc2)=CC1(C/C=C/c1ccccc1)OC (stereo not drawn) has an inhibition of 0.6%.
For COc1cc2oc(Cc3cc(OC)c(OC)cc3OC/C=C/c3ccccc3)c(-c3ccccc3)c2cc1O, the inhibition was 11.5%.

Assay: Inhibition of testerone 5-alpha-reductase at 100 ug/mL
COC1=CC(=O)c2cc(-c3ccccc3)c3cc(O)c(OC)cc3c2C1=O showed an inhibition of 65.6%.
With COc1cc(O)ccc1C(=O)/C=C/c1ccccc1 the inhibition was 22.8%.
Work on C=CC(c1ccccc1)c1cc(O)c(OC)cc1OC (stereo not drawn) yielded an inhibition of 51.8%.
Compound CC1(C)[C@@H](O)CC[C@]2(C)[C@H]3C(=O)C=C4[C@@H]5C[C@@](C)(C(=O)O)CC[C@]5(C)CC[C@@]4(C)[C@]3(C)CC[C@@H]12 has an inhibition of 87.1%.
Compound COC1=CC(=O)C(Cc2oc3cc(OC)c(O)cc3c2-c2ccccc2)=CC1(C/C=C/c1ccccc1)OC (stereo not drawn) has an inhibition of 17%.
Compound COc1cc2oc(Cc3cc(OC)c(OC)cc3OC/C=C/c3ccccc3)c(-c3ccccc3)c2cc1O has an inhibition of 18.1%.
